# Tests used:
# [1] = test system: mice; assay: AITC (mustard oil)-induced ear swelling, neurogenic inflammation during anesthesia; assay type: in vivo, mouse; conditions: 1.2 MAC
# Method: Behavioral Experiments and Neurogenic Inflammation. Animal experiments were performed according to National Institutes of Health and institutional guidelines. […] Nocifensive behavior (nose wiping in sawdust bedding) was recorded for 2 min with a video camera and the duration was subsequently measured by a blinded observer. […] Electromyographic (EMG) activity was recorded via platinum electrodes from the semitendinosus muscle in mice anesthetized with urethane (1.3 g/kg) as described in Ando and Watanabe, Br J. Anaesth. […] The EMG signal was recorded by using a low-pass cutoff frequency of 200 Hz and integrated offline by using a 100-ms time window. […] Ear thickness was recorded by using an engineer's micrometer (Mitutoyo Corp.) before mustard-oil application and thereafter every 15 min for 60 min of anesthesia and 60 min of recovery.
# [2] = test system: AITC-sensitive DRG neurons; assay: Voltage- and current-clamp of DRG sensory neurons; assay type: cell-based, mouse; conditions: 0.9 mM, wild-type mice, voltage-clamp, 11 of 35
# [3] = target: T1, Drosophila TRPA1 (Drosophila melanogaster, UniProt Q7Z020); assay: Current-voltage recordings in dTRPA1-expressing HEK293 cells; assay type: cell-based; conditions: desflurane at concentrations up to 3 mM
# T1 construct: expressed in transfected cells; host or cells: HEK293
# T1 sequence (Q7Z020 1-1197): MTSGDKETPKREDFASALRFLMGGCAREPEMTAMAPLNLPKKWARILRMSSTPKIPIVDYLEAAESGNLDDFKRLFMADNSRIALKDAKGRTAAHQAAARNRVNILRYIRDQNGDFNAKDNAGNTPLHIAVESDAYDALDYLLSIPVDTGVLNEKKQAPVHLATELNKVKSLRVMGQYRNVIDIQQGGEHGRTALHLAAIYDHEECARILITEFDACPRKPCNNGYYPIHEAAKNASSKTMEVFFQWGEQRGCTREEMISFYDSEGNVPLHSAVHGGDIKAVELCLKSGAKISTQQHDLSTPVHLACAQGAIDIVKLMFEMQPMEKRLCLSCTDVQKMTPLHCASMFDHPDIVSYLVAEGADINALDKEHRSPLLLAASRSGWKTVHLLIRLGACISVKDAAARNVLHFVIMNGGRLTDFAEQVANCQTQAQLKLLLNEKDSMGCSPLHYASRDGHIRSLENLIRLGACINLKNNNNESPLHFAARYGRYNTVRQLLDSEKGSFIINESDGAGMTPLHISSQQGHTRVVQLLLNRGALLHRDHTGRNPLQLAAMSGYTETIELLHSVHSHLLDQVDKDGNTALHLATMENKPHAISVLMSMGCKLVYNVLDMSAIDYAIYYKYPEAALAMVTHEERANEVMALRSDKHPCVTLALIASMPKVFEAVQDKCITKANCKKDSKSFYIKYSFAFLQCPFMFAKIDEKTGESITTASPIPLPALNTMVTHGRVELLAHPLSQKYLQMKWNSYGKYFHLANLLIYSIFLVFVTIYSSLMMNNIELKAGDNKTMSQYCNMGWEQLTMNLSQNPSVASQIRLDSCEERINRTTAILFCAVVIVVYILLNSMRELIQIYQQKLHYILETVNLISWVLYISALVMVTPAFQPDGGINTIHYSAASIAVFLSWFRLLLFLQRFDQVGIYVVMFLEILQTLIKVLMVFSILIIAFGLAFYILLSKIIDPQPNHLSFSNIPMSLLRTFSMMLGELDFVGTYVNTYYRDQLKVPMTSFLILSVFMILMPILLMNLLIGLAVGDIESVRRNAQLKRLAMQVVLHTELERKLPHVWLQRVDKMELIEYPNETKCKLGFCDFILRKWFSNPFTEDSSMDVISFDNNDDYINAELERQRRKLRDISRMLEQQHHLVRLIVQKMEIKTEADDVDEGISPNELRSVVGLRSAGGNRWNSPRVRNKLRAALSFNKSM
# Method: A genetic approach was used to identify critical sites in TRPA1 and TRPV1 required for activation by general anesthetics. Drosophila TRPA1 is insensitive to desflurane (at concentrations up to 3 mM). […] Note that dTRPA1 is insensitive to AITC. Next, several chimeric TRP proteins containing dTRPA1 (unresponsive to desflurane) and mTRPA1 were tested. For the dTRPA1-mN chimera, the mouse 720 amino acid N-terminus was exchanged for the drosophila N-terminus. The N-terminal domain contains essential binding sites for AITC, and therefore studying this chimera tests an important role for the N-terminus in anesthetic-sensing. […] The mTRPA1-dTM5 construct was then studied, which is the mouse protein containing the fifth transmembrane domain of the drosophila protein.
SMILES,"AITC-induced ear swelling during anesthesia, compared with sevoflurane ([1]; AITC 0.6%, 15-120 min, n=7, P<0.01)",Swelling in the unpainted ear ([1]; at 90 and 120 min),Neurons with evoked currents [2],Sensitivity of Drosophila TRPA1 [3]
FC(F)OC(Cl)C(F)(F)F (stereo not shown) [isoflurane],significantly greater swelling,small increase in swelling,31%,
FC(F)OC(F)C(F)(F)F (stereo not shown) [desflurane],,,,insensitive

# — US20110104301A1, “METHODS OF REDUCING PAIN AND INFLAMMATION” (Georgetown University, A Congressionally Chartered …, priority 2008, published 2011)
